Results reported in patent publication US11981921B2, “TIL expansion processes using specific cytokine combinations and/or AKTi treatment” (Iovance Biotherapeutics, Inc., priority 2022, dated 2024).
Read-outs that look alike come from different tables or passages of the source.

How the values were obtained:
TIL = experiment: AKT inhibition during ex vivo TIL expansion (REP); format: cell-based
Protocol: Patient tumors from different indications were received, fragmented, and subjected to an expansion protocol for TIL manufacturing. Different doses (0.3 μM and 1 μM) of the pan-AKT inhibitor (AKTi) ipatasertib were added to the culture during ex vivo expansion. The expansion potential, as well as the phenotypic and functional characteristics of TIL were evaluated on the final TIL product.

TILs [1] = system: TILs
Description: (§1) The overarching goal of these experiments is to examine the growth conditions during the whole expansion process of TILs to augment their stem-like attributes while improving their functional and phenotypic characteristics.
(§2) Pre-REP TILs from 3 different indications were thawed and REPped in a G-REX 24 well plate. Cytokines were given twice (Day 0 and Day 5 of pre-REP). The following conditions were included in the REP protocol used in 24-well G-Rex plates: • 1) Feeder:TIL ratio 250:1 with 5 million feeders and 20,000 TILs per well, OKT3 at 30 ng/mL, • 2) On day 0 the REP is initiated with 3 mL of CM2 with cytokines and compounds, • 3) On day five 5 mL of CM4 media was added to each well, • 4) All cytokines and compounds are added twice on day 0 and day 5.

TILs [2] = settings: 1 or 2 uM given once or twice, with IL-2 1000 IU/ml + IL-21 10 ng/ml
Description: as §1
as §2, with “Frozen pre-REP TILs were thawed and REPed under different conditions in 24-well GREX plates. […] Pre-REP” for “Pre-REP”, “plate.” for “plate. Cytokines were given twice (Day 0 and Day 5 of pre-REP).”

TILs [3] = experiment: Evaluation of I-TIL process conditions (pre-REP and REP, 18 tumors); format: cell-based
Protocol: Tumors (N=18) were received and processed for both pre-REP and REP expansion to test and select a preferred set of conditions, nominated as the final I-TIL (invigorated TIL) conditions.
Cytokines were added twice on Day 0 and Day 5 of pre-REP.
Pre-REP cells were then frozen until all pre-REP samples were generated in order to initiate the REP together at the same time. Frozen pre-REP TILs were thawed and rested overnight in their corresponding conditions followed by REP in 24-well G-Rex plates. […] Cytokines were added twice on Day 0 and Day 5 and AZD5363 was only added once on Day 0 of REP.

TILs [4] = system: TILs; remark: listed apart in the source
Protocol: This Example describes the evaluation of the effects of IL-21 (10 ng/ml)+ AZD5363 in combination with increasing doses of IL-2 or IL-15 and evaluation of the overall impact on preventing effector differentiation, promoting more stem-like attributes and improving functionality of TILs during REP. The overarching goal of these experiments is to examine the growth conditions during the whole expansion process of TILs to augment their stem-like attributes while improving their functional and phenotypic characteristics.
Frozen pre-REP TILs were thawed and REPed under different conditions in 24-well GREX plates. Cytokines were given twice (Day 0 and Day 5 of pre-REP). Pre-REP TILs from 3 different indications were thawed and REPped in a G-REX 24 well plate. The following conditions were included in the REP protocol used in 24-well G-Rex plates: • 1) Feeder:TIL ratio 250:1 with 5 million feeders and 20,000 TILs per well, OKT3 at 30 ng/mL, • 2) On day 0 the REP is initiated with 3 mL of CM2 with cytokines and compounds, • 3) On day five 5 mL of CM4 media was added to each well, • 4) All cytokines and compounds are added twice on day 0 and day 5. The following conditions were tested: IL-2 3000 IU/mL, IL-2 2000 IU/mL, IL-2 1000 IU/mL, IL-2 3000 IU/mL+IL-21 10 ng/ml, IL-2 2000 IU/mL+IL-21 10 ng/ml, IL-2 1000 IU/mL+IL-21 10 ng/ml, IL-2 3000 IU/mL+IL-21 10 ng/ml+2 uM AZD5363 (added once), IL-2 2000 IU/mL+IL-21 10 ng/ml+2 uM AZD5363 (added once), IL-2 1000 IU/mL+IL-21 10 ng/ml+2 uM AZD5363 (added once), and IL-15 10 ng/ml+IL-21 10 ng/ml+1 uM AZD5363 (added twice).

KILR® THP-1 cells = experiment: TIL cytotoxicity in coculture with KILR THP-1 cells; format: cell-based; settings: 24 hrs coculture, 10:1, Invigo-T process
Protocol: TILs were then tested for cytotoxicity in an allogeneic environment after coculture for 24 hrs with KILR® THP-1 cells at a 10:1 effector-to-target cell. […] TILs were next stimulated every 3 days with TransAct followed by coculture for 24 hrs with KILR® THP-1 cells before being assessed for cytotoxicity and IFNg expression (as measured byflow cytometry staining).

[5] = AKTi treatment during ex vivo expansion
[6] = with IL-15 10 ng/ml + IL-21 10 ng/ml

## CC(C)NC[C@@H](C(=O)N1CCN(c2ncnc3c2[C@H](C)C[C@H]3O)CC1)c1ccc(Cl)cc1 [AKTi, ipatasertib]
TIL; 1 μM dose, relative to control
  expansion and viability of TIL: equivalent
TIL; 1 μM dose, relative to control, present even after re-stimulation
  population of less differentiated CD39−CD69− cells: doubled
TIL; [5]
  cytotoxicity of TIL: increased cytotoxicity
  frequency of IFNγ+TNFα+CD8+ T cells: increase
TIL; CD39−CD69− cells after re-stimulation
  expression of CD38 and transcription factors T-bet and Tox: reduced expression

## AZD5363
TILs [1]; [6]
  effector differentiation, stem-like phenotype, functional responses, inhibitory receptor expression: induces many of the desired changes
TILs [1]; with IL-15 + IL-21, vs IL-2 1000 IU/ml and IL-21 10 ng/ml
  effects on increasing IFNg, TNFa and IL-2: more pronounced
TILs [2]
  phenotypic changes on TILs (inhibitory receptors, activation, stem-like qualities, functionality): further beneficial phenotypic changes
TILs [3]; 2 uM once on Day 0 of REP, with IL-15 10 ng/ml + IL-21 10 ng/ml
  effector differentiation, stem-like phenotype, functional responses, inhibitory receptor expression: induces many of the desired changes
TILs [3]; with IL-15 + IL-21, vs IL-2 1000 IU/ml + IL-21 10 ng/ml + AZD5363
  effects on increasing IFNg, TNFa and IL-2: more pronounced
TILs [4]; 2 uM given once, with IL-2 1000 IU/ml + IL-21 10 ng/ml
  effector differentiation, stem-like phenotype, functional responses, inhibitory receptor expression: induces many of the desired changes
TILs [4]; IL-15 combination
  activation state of TILs: further reduced
TILs [4]; [6]
  effects on cytokine production, in particular IL-2: quite significant
TILs [4]; with IL-15 10 ng/ml + IL-21 10 ng/ml, vs IL-2 combination
  same effects with IL-15 instead of IL-2: comparable
KILR® THP-1 cells
  cytotoxicity with or without AZD5363: no significant difference

## IL-15: cytokine used at 10 ng/ml with IL-21 during REP
TILs [3]; IL-15 conditions
  yield and viability of the process: significantly augmented
